In brackets after ≈: the same amount, converted by molar mass. Several values for one entry are separate records, joined by “and”; a condition that tells them apart may be missing. Equal entries are not always repeated.
Legend:
[1] = test system: MCF-7, EAC, B16-F0 cells; experiment: MTT test, cancer cell lines overall; assay type: cell-based; details: over the cell lines tested; read-out: IC50 (range over treated cells)
Experimental: (§1) The in vitro anticancer activities of the synthesized compounds were conducted using different cancerous and non-cancerous cell lines viz B16-F0 (Mouse melanoma), mouse Ehrlich Ascites Carcinoma (EAC), MCF-7 (Human breast cancer), MCF-10A (Human breast epithelial cells), and NIH/3T3 (Mouse fibroblast cells). All cell lines were procured from the National Centre for Cell Science, Pune, India. The procured cells were cultured in a six-well culture plate with Dulbecco’s Modified Eagle’s Medium (DMEM) supplemented with 10% fetal bovine serum in a humid CO2 incubator with 5% carbon dioxide at 37 °C.
The anti-cancer effect and cytotoxicity of both 3-MBTSc and 4-NBTSc compounds were evaluated against different cancerous (MCF-7, EAC, B16-F0 cells) and noncancerous cells (MCF-10A, NIH-3T3 cells) using MTT test. […] Later, the absorbance values were measured by an ELISA reader (Biorad, Hercules, CA, USA) at 570 nm wavelength using secondary wavelength as a reference at 620 nm and the percentages of cell viability was calculated using the following formula [59, 60, 61]. Cell viability (%)= Mean absorbance of treated cells/Mean absorbance of untreated cells × 100
(§2) Based on the cell viability data, the IC50 values of both compounds were calculated on different cancer cells by plotting their corresponding dose-responsive graphs.
The obtained data were statistically analyzed. […]

[2] = test system: gene expression in B16-F0 melanoma cells; experiment: RT-qPCR gene expression in B16-F0 cells; assay type: cell-based, Mouse
Experimental: (§3) Total mRNA was isolated and extracted by Trizol reagent as described in an earlier method. RevertAid First Strand cDNA synthesis kit (Thermo Fisher Scientific, Waltham, MA, USA) was used to synthesize cDNA in a total reaction volume of 20 μL containing oligo-dT primers, RiboLock RNase inhibitor, and reverse transcriptase. Gene-specific primers were used to amplify cDNAs in RT-qPCR machine (Applied Biosystems, Waltham, MA, USA).

[3] = test system: MCF-10A (Human breast epithelial cells); experiment: MTT cytotoxicity test on MCF-10A cells; assay type: cell-based; details: 48 h
Experimental: as §1
(§4) The anti-cancer effect and cytotoxicity of both 3-MBTSc and 4-NBTSc compounds were evaluated against different cancerous (MCF-7, EAC, B16-F0 cells) and noncancerous cells (MCF-10A, NIH-3T3 cells) using MTT test. In brief, the stock solutions of both the tested compounds were prepared by dissolving 1 mg of each compound in 1 mL of DMSO separately. Then, four different concentrations (5, 10, 12, and 20 µg/mL) of both compounds were used during the test along with the negative control. Also, 10 μg/mL of doxorubicin (Dox) was used as the positive control during the experiment. Both untreated and treated cells were incubated for next 24 and 48 h. Then, all the steps during the whole experiment were carried out by our earlier reported procedure. Later, the absorbance values were measured by an ELISA reader (Biorad, Hercules, CA, USA) at 570 nm wavelength using secondary wavelength as a reference at 620 nm and the percentages of cell viability was calculated using the following formula [59, 60, 61]. Cell viability (%)= Mean absorbance of treated cells/Mean absorbance of untreated cells × 100

[4] = MTT cytotoxicity test on MCF-10A cells; assay type: cell-based, Human; details: human, MCF-10A breast epithelial cells
Experimental: as §1, §4

[5] = test system: MCF-7 (Human breast cancer); experiment: MTT test on MCF-7 cells; assay type: cell-based; details: MCF7, till 48 h
Experimental: as §1, §4, §2
The obtained data were statistically analyzed. The descriptive analysis was done and the IC50 values were calculated by fitting the sigmoidal dose responsive graph using GraphPad Prism (GraphPad Software, Inc., La Jolla, CA, USA). […]

[6] = MTT cytotoxicity test on NIH-3T3 cells; assay type: cell-based, Mouse; details: mouse, NIH/3T3 fibroblast cells
Experimental: as §1, §4

[7] = test system: NIH/3T3 (Mouse fibroblast cells); experiment: MTT cytotoxicity test on NIH-3T3 cells; assay type: cell-based; details: 48 h
Experimental: as §1, §4

[8] = test system: gene expression in MCF-7 human breast cancer cells; experiment: RT-qPCR gene expression in MCF-7 cells; assay type: cell-based
Experimental: as §3

[9] = test system: gene expression in EAC cells; experiment: RT-qPCR gene expression in EAC cells; assay type: cell-based, mouse
Experimental: as §3

[10] = B16-F0 cells treated, GAPDH housekeeping gene
[11] = B16-F0 cells, difference of RQ values
[12] = MCF-7 cells treated, GAPDH housekeeping gene
[13] = MCF-7 cells, difference of RQ values
[14] = EAC cells treated, GAPDH housekeeping gene
[15] = EAC cells, difference of RQ values

COc1cccc(C=NNC(N)=S)c1 [3-MBTSc, 3-Methoxybenzaldehyde thiosemicarbazone]
IC50 [1]: 2.82 to 14.2 µg/mL (≈ 13.5 to 68.1 µM) | BCl2 Treated (RQ value) [2, 10]: 2.14 ± 0.028 | BRCA1 Treated (RQ value) [2, 10]: 1.14 ± 0.028 | Bax Treated (RQ value) [2, 10]: 3.095 ± 0.021 | Caspase-3 Treated (RQ value) [2, 10]: 6.105 ± 0.021 | Dmp1 Treated (RQ value) [2, 10]: 5.19 ± 0.028 | Fos Treated (RQ value) [2, 10]: 3.135 ± 0.021 | MTS 1 Treated (RQ value) [2, 10]: 6.14 ± 0.042 | Mdm2 Treated (RQ value) [2, 10]: 5.105 ± 0.021 | PKC Treated (RQ value) [2, 10]: 5.13 ± 0.028 | PTEN Treated (RQ value) [2, 10]: 4.94 ± 0.028 | RAS Treated (RQ value) [2, 10]: 4.16 ± 0.028 | p19 Arf Treated (RQ value) [2, 10]: 5.125 ± 0.021 | p21 Treated (RQ value) [2, 10]: 5.115 ± 0.021 | p53 Treated (RQ value) [2, 10]: 5.185 ± 0.035 | pRB Treated (RQ value) [2, 10]: 1.105 ± 0.007 | BCl2 Fold Change (B16-F0 treated-B16-F0 untreated) [2, 11]: 0.050 fold | BRCA1 Fold Change (B16-F0 treated-B16-F0 untreated) [2, 11]: -0.660 fold | Bax Fold Change (B16-F0 treated-B16-F0 untreated) [2, 11]: 0.360 fold | Caspase-3 Fold Change (B16-F0 treated-B16-F0 untreated) [2, 11]: 3.505 fold and 3.50 fold | Dmp1 Fold Change (B16-F0 treated-B16-F0 untreated) [2, 11]: 2.700 fold | MTS 1 Fold Change (B16-F0 treated-B16-F0 untreated) [2, 11]: 4.205 fold | Mdm2 Fold Change (B16-F0 treated-B16-F0 untreated) [2, 11]: -2.135 fold | PTEN Fold Change (B16-F0 treated-B16-F0 untreated) [2, 11]: 2.795 fold | p19 Arf Fold Change (B16-F0 treated-B16-F0 untreated) [2, 11]: 3.790 fold | p21 Fold Change (B16-F0 treated-B16-F0 untreated) [2, 11]: 2.925 fold | p53 Fold Change (B16-F0 treated-B16-F0 untreated) [2, 11]: 3.025 fold | pRB Fold Change (B16-F0 treated-B16-F0 untreated) [2, 11]: -0.495 fold | toxicity [3]: less than 20% | viability at 48 h [4]: > 80% | IC50 [5]: 2.821 ± 0.008 µg/mL (≈ 13.5 µM) | viability at 48 h [6]: > 80% | toxicity [7]: less than 20% | BCl2 Treated (RQ value) [8, 12]: 2.375 ± 0.025 | BRCA1 Treated (RQ value) [8, 12]: 7.13 ± 0.01 | BRCA2 Treated (RQ value) [8, 12]: 1.235 ± 0.005 | Bax Treated (RQ value) [8, 12]: 2.125 ± 0.025 | Caspase-3 Treated (RQ value) [8, 12]: 2.13 ± 0.01 | Dmp1 Treated (RQ value) [8, 12]: 2.1 ± 0.03 | ER Treated (RQ value) [8, 12]: 3.15 ± 0.03 | Hdm2 Treated (RQ value) [8, 12]: 5.26 ± 0.045 | Myc Treated (RQ value) [8, 12]: 3.43 ± 0.015 | PKC Treated (RQ value) [8, 12]: 5.455 ± 0.015 | PR Treated (RQ value) [8, 12]: 1.23 ± 0.02 | PTEN Treated (RQ value) [8, 12]: 3.78 ± 0.02 | RAS Treated (RQ value) [8, 12]: 3.905 ± 0.035 | p19 Arf Treated (RQ value) [8, 12]: 4.575 ± 0.055 | p21 Treated (RQ value) [8, 12]: 3.125 ± 0.025 | p53 Treated (RQ value) [8, 12]: 5.185 ± 0.015 | pRB Treated (RQ value) [8, 12]: 3.11 ± 0.01 | BCl2 Fold Change (MCF 7 treated-MCF 7 untreated) [8, 13]: 0.285 fold | BRCA1 Fold Change (MCF 7 treated-MCF 7 untreated) [8, 13]: 5.33 fold | BRCA2 Fold Change (MCF 7 treated-MCF 7 untreated) [8, 13]: -0.7 fold | Bax Fold Change (MCF 7 treated-MCF 7 untreated) [8, 13]: 1.4 fold | Caspase-3 Fold Change (MCF 7 treated-MCF 7 untreated) [8, 13]: 1.53 fold | Hdm2 Fold Change (MCF 7 treated-MCF 7 untreated) [8, 13]: -1.98 fold | Myc Fold Change (MCF 7 treated-MCF 7 untreated) [8, 13]: -4.02 fold | PKC Fold Change (MCF 7 treated-MCF 7 untreated) [8, 13]: -7.64 fold | PR Fold Change (MCF 7 treated-MCF 7 untreated) [8, 13]: 0.035 fold | PTEN Fold Change (MCF 7 treated-MCF 7 untreated) [8, 13]: 1.635 fold | RAS Fold Change (MCF 7 treated-MCF 7 untreated) [8, 13]: −5.92 fold | p19 Arf Fold Change (MCF 7 treated-MCF 7 untreated) [8, 13]: 3.24 fold | p21 Fold Change (MCF 7 treated-MCF 7 untreated) [8, 13]: 0.935 fold | p53 Fold Change (MCF 7 treated-MCF 7 untreated) [8, 13]: 3.025 fold | pRB Fold Change (MCF 7 treated-MCF 7 untreated) [8, 13]: 1.51 fold | BCl2 Treated (RQ value) [9, 14]: 7.195 ± 0.021 | BRCA1 Treated (RQ value) [9, 14]: 4.305 ± 0.021 | Bax Treated (RQ value) [9, 14]: 5.195 ± 0.021 | Caspase-3 Treated (RQ value) [9, 14]: 3.095 ± 0.035 | Dmp1 Treated (RQ value) [9, 14]: 6.9 ± 0.028 | Fos Treated (RQ value) [9, 14]: 4.22 ± 0.014 | MTS 1 Treated (RQ value) [9, 14]: 1.1 ± 0.028 | Mdm2 Treated (RQ value) [9, 14]: 4.145 ± 0.035 | PKC Treated (RQ value) [9, 14]: 7.105 ± 0.021 | PTEN Treated (RQ value) [9, 14]: 4.205 ± 0.035 | RAS Treated (RQ value) [9, 14]: 3.215 ± 0.021 | p19 Arf Treated (RQ value) [9, 14]: 4.73 ± 0.028 | p21 Treated (RQ value) [9, 14]: 5.19 ± 0.028 | pRB Treated (RQ value) [9, 14]: 3.575 ± 0.021 | BCl2 Fold Change (EAC treated-EAC untreated) [9, 15]: 4.105 fold | BRCA1 Fold Change (EAC treated-EAC untreated) [9, 15]: 2.245 fold | Bax Fold Change (EAC treated-EAC untreated) [9, 15]: 2.145 fold | Caspase-3 Fold Change (EAC treated-EAC untreated) [9, 15]: 0.195 fold | Dmp1 Fold Change (EAC treated-EAC untreated) [9, 15]: 4.75 fold | Fos Fold Change (EAC treated-EAC untreated) [9, 15]: -3.92 fold | MTS 1 Fold Change (EAC treated-EAC untreated) [9, 15]: -0.805 fold | Mdm2 Fold Change (EAC treated-EAC untreated) [9, 15]: -1.06 fold | PKC Fold Change (EAC treated-EAC untreated) [9, 15]: -3.03 fold | PTEN Fold Change (EAC treated-EAC untreated) [9, 15]: 2.975 fold | RAS Fold Change (EAC treated-EAC untreated) [9, 15]: -3.725 fold | p19 Arf Fold Change (EAC treated-EAC untreated) [9, 15]: 1.98 fold | p21 Fold Change (EAC treated-EAC untreated) [9, 15]: 4.195 fold | p53 Fold Change (EAC treated-EAC untreated) [9, 15]: 2.1 fold | pRB Fold Change (EAC treated-EAC untreated) [9, 15]: 1.67 fold
